Laboratory results: PMC12024193, “Engineered Lysin-Derived Peptide as a Potent Antimicrobial for Acne Vulgaris” (Antibiotics, 2025)

Tests used:
[1] = test system: S. aureus strain USA300; experiment: One-hour killing assay with or without retinoic acid; assay type: cell-based, Staphylococcus aureus; conditions: MRSA USA300, 1 h, Tris pH 7.2, 37 °C, triplicate
Procedure: (§1) Unless stated otherwise, the standard conditions for killing assays involved statically treating exponential phase bacteria at approximately 5 × 10^5 CFU/mL with a lysin-derived peptide at 25 μg/mL in a 96-well microtiter plate under aerobic (S. aureus) or anaerobic conditions (C. acnes and S. aureus) in 20 mM Tris (Fisher Scientific), pH 7.2, for 1 h at 37 °C. For dose–response killing assays, peptide concentrations ranging from 1 up to 125 μg/mL were tested.
For measuring the effect of retinoid on peptide bactericidal activity, S. aureus strain USA300 at 10^6 CFU/mL was treated with or without P156 at 25 μg/mL in buffer supplemented with all-trans-retinoic acid (Sigma-Aldrich) at 0.01–0.1% (w/v).
Each killing assay comprised an untreated control (bacteria absent peptide) for every condition tested. After 1 h, 100 μL directly from the sample, as well as 5 μL of each dilution from a 10-fold serial dilution, were plated on either TSB agar (for S. aureus killing assays using aerobic conditions), rTSB agar (for S. aureus killing assays using anaerobic conditions), or rTSB agar with 2% glycerol (for C. acnes killing assays) in order to quantitate bacterial viability. The LOD for each experiment was 10 CFU/mL, with one exception. […] For statistical analysis, p-values were calculated using an unpaired t-test due to each lysin or peptide dose being compared individually to the untreated group. […]

[2] = test system: C. acnes strain ATCC 6919; experiment: Time-kill assay; assay type: cell-based, Cutibacterium acnes; conditions: 25 μg/mL, 20 mM Tris, pH 7.2, 37 °C, three biological replicates
Procedure: Using an EchoTherm chilling/heating plate, separate aliquots of both C. acnes strain ATCC 6919 at 10^6 CFU/mL and P156 at 50 μg/mL in 20 mM Tris, pH 7.2, were equilibrated to 37 °C for 10 min in 1.7 mL microcentrifuge tubes. The bacteria and peptide were then combined 1:1 in a microcentrifuge tube to obtain final concentrations of 5 × 10^5 CFU/mL and 25 μg/mL, respectively. An untreated control (bacteria without peptide) was also included. The samples were incubated for a total of 30 min at 37 °C. At 1, 5, 10, 15, 20, 25 and 30 min, an aliquot was removed. Both 100 μL directly from the sample, as well as 5 μL of each dilution from a 10-fold serial dilution, were plated on rTSB agar supplemented with 2% (v/v) glycerol in order to assess bacterial viability. The LOD was 10 CFU/mL. Error bars correspond to ±SEM of three biological replicates. For statistical analysis, p-values were calculated using an unpaired t-test between the untreated group and the peptide-treated group at each time point. ** p < 0.05 and a ≥3-log CFU reduction (with respect to the untreated group).

[3] = test system: S. aureus; experiment: One-hour killing assay against S. aureus (aerobic or anaerobic growth); assay type: cell-based, Staphylococcus aureus; conditions: 20 mM Tris, pH 7.2, 1 h, 37 °C
Procedure: (§2) Bacterial strains used in this study are outlined in Table 2 and were stored at −80 °C. C. acnes strains were grown in a BACTRON900 anaerobic chamber (Sheldon Manufacturing Inc., Cornelius, OR, USA) at 37 °C to exponential phase in reduced Trypticase Soy Broth (rTSB, BD Biosciences, Franklin Lakes, NJ, USA) supplemented with 2% (v/v) glycerol. S. aureus strains were grown either aerobically or anaerobically at 37 °C to the exponential phase in TSB (aerobic growth) or rTSB (anaerobic growth).
as §1
(§3) Each killing assay comprised an untreated control (bacteria absent peptide) for every condition tested. After 1 h, 100 μL directly from the sample, as well as 5 μL of each dilution from a 10-fold serial dilution, were plated on either TSB agar (for S. aureus killing assays using aerobic conditions), rTSB agar (for S. aureus killing assays using anaerobic conditions), or rTSB agar with 2% glycerol (for C. acnes killing assays) in order to quantitate bacterial viability. The LOD for each experiment was 10 CFU/mL, with one exception. For the dose–response killing assay evaluating the collection of peptides against C. acnes, only the 10-fold serial dilutions from each sample were plated, resulting in an LOD of 200 CFU/mL. Experiments performed under anaerobic conditions used agar plates that were reduced overnight. Additionally, buffers for these particular assays were made fresh the day of the experiment and reduced for 2 h prior to use. Error bars correspond to the standard error of the mean (SEM) of two or three biological replicates. For statistical analysis, p-values were calculated using an unpaired t-test due to each lysin or peptide dose being compared individually to the untreated group. Additionally, to ensure clarity in presenting statistical significance, we used three types of statistical markers to highlight differences: ns, not significant, * p < 0.05 and a <3-log CFU reduction (with respect to the untreated group), ** p < 0.05 and a ≥3-log CFU reduction (with respect to the untreated group).

[4] = test system: C. acnes; experiment: One-hour killing assay against C. acnes (dose-response; temperature, pH and NaCl variations); assay type: cell-based, Cutibacterium acnes
Procedure: as §2, §1
To evaluate the effect salt has on the antibacterial activity of the peptide, C. acnes strain ATCC 6919 was treated with P156 in buffer supplemented with 0-500 mM NaCl. The bactericidal potency of P156 in a broad pH range was assayed by treating C. acnes strain ATCC 6919 with the peptide in either 20 mM 2-(N-morpholino) ethanesulfonic acid (MES, pH 5.5–6.5; Fisher Scientific), sodium phosphate buffer (NaPO4, pH 6.5–7.0), or Tris (pH 7.0–8.0).
(§4) Temperature-based killing assays were performed by initially thawing a frozen aliquot of P156, which was then stored at 4 °C for a month. This was the only experiment where an aliquot of a lysin-derived peptide was stored for an extended period of time at a temperature other than −80 °C. Next, C. acnes strain ATCC 6919 was treated with the above-mentioned P156 aliquot in buffer at 15 °C to 40 °C. For these experiments, separate aliquots of both the bacteria at 10^6 CFU/mL and peptide at 50 μg/mL were initially equilibrated to the temperature being assayed for 5 min in 1.7 mL microcentrifuge tubes using an EchoTherm chilling/heating plate (Torrey Pines Scientific, Carlsbad, CA, USA). The bacteria and peptide were then mixed together 1:1 in a microcentrifuge tube, yielding respective final concentrations of 5 × 10^5 CFU/mL and 25 μg/mL, and subsequently incubated in the chilling/heating plate for 1 h.
as §3

[5] = test system: C. acnes strain ATCC 6919; experiment: Storage stability: bactericidal activity after thawing from -80 °C and four weeks at 4 °C; assay type: physicochemical, Cutibacterium acnes; conditions: thawed from -80 °C, stored four weeks at 4 °C; read-out bactericidal activity at 25 μg/mL against C. acnes ATCC 6919
Procedure: as §4

[6] = 25 μg/mL, ATCC 6919, 1 h, 37 °C

| Compound | antibacterial effect of retinoic acid alone on S. aureus ([1]; 0.01-0.1% retinoic acid) | log reduction in bacterial CFU in 10 min [2] [log] | log reduction in bacterial CFU within 1 min [2] [log] | lowest concentration reducing CFU counts of all S. aureus strains below the LOD ([3]; aerobic, strains 8325, USA300, USA400, LOD 10 CFU/mL) [µg/mL] | log kill of all S. aureus strains tested ([3]; peptide at 5 μg/mL) [log] | log CFU reduction of all S. aureus strains (below LOD) ([3]; peptide at 25 μg/mL) [log CFU] | log kill of MRSA strain USA300 grown under anaerobic conditions ([3]; peptide at 25 μg/mL, anaerobic, LOD 10 CFU/mL, triplicate) [log] | log reduction of bacterial counts at each temperature assayed ([4]; 25 μg/mL, ATCC 6919, 15-40 °C, 1 h, peptide stored four weeks at 4 °C) [logs] | bactericidal effect at elevated pH levels (up to 7.6) [4, 6] | bactericidal effect within pH 6-7 [4, 6] | log reduction of C. acnes populations in 50 mM NaCl [4, 6] [logs] | log CFU reduction (below LOD) at under 25 mM NaCl / lower salt concentrations ([4]; 25 μg/mL, ATCC 6919, 1 h, 37 °C, LOD 10 CFU/mL) [log CFU] | log reduction of C. acnes CFU counts (below LOD) at 20 °C to 40 °C ([4]; 25 μg/mL, ATCC 6919, 1 h, peptide stored four weeks at 4 °C, LOD 10 CFU/mL, triplicate) [logs] | antibacterial activity at high salt concentrations ([4]; 25 μg/mL, ATCC 6919, NaCl, 1 h, 37 °C) | log reduction of CFU counts at ≤50 mM NaCl ([4]; 25 μg/mL, ATCC 6919, buffer supplemented with NaCl, 1 h, 37 °C, triplicate) [log CFU] | log kill of all C. acnes strains tested ([4]; peptide at 5 μg/mL, seven strains, 20 mM Tris, pH 7.2, 1 h, 37 °C) [log] | log CFU reduction of all C. acnes strains (below LOD) ([4]; peptide at 25 μg/mL, 20 mM Tris, pH 7.2, 1 h, 37 °C) [log CFU] | concentration lowering the viability of all C. acnes strains below the LOD ([4]; seven strains, 20 mM Tris, pH 7.2, 1 h, 37 °C, LOD 200 CFU/mL, duplicate) [µg/mL] | log CFU reduction of S. aureus in the presence of 0.01-0.1% retinoic acid ([1]; P156 at 25 μg/mL, LOD 10 CFU/mL) [log CFU] | stability after four weeks of storage at 4 °C [5] |
| --- | --- | --- | --- | --- | --- | --- | --- | --- | --- | --- | --- | --- | --- | --- | --- | --- | --- | --- | --- | --- |
| CC1=C(/C=C/C(C)=C/C=C/C(C)=C/C(=O)O)C(C)(C)CCC1 [retinoic acid, all-trans-retinoic acid, reference compound] | no antibacterial effect |  |  |  |  |  |  |  |  |  |  |  |  |  |  |  |  |  |  |  |
| RRKAKAPRAEIYAQFNKWVYAGGKKLSGLVKRRRR [Peptide P156, variant peptide engineered by adding arginine residues at both the N- and C-terminal ends of the parental peptide PiP01] |  | > 5 | > 3 | 5 | ≥ 3 | > 4 | > 5 | > 4 | able to eradicate C. acnes | complete bacterial eradication | 3 | > 4 | > 5 | lack of antibacterial activity | > 3 | ≥ 3 | > 4 | ≥ 5 | > 5 | remains stable and active |
